Publication PMC6131501, “Urate transporter inhibitor lesinurad is a selective peroxisome proliferator-activated receptor gamma modulator (sPPARγM) in vitro” (Scientific Reports, 2018)

Assays:
[1] = tested on: PPARγ-regulated genes in 3T3-L1 adipocytes; test: PPARγ target gene quantification in 3T3-L1 adipocytes (qPCR); assay type: cell-based, murine; details: 3T3-L1 adipocytes, rosiglitazone 2 μM, 1 30 μM, mean ± SEM, n = 3
Method: 3T3-L1 cells were cultured and differentiated as described above. Cells were then lysed using TRIzol reagent (Ambion, Life Technologies, Carlsbad, CA, USA), and mRNA was isolated following the manufacturer’s protocol. DNA contaminations were digested using DNase (DNase I, RNase-free kit; Thermo Scientific, Waltham, MA, USA) and mRNA concentrations were measured with a NanoDrop2000 spectrophotometer (Thermo Scientific, Waltham, MA, USA). Subsequently, reverse transcription was performed using the high capacity RNA-to-cDNA kit (Applied Biosystems, Foster City, CA, USA). Quantitative real-time PCR was performed using specific primers for CD36, […] and CPT1A with a StepOnePlus real-time PCR system (Applied Biosystems, Foster City, CA, USA). Non-POU domain containing octamer binding protein (NonO) was used as reference gene for 3T3-L1. All samples were measured in duplicate and were analyzed using the ΔΔCt method. The following PCR primers were used: Adiponectin: 5′-TGACGACACCAAAAGGGCTC-3′ (fwd) and 5′-CACAAGTTCCCTTGGGTGGA-3′ (rev); CD36: 5′-TGCTGGAGCTGTTATTGGTG-3′ (fwd) and 5′-CATGAGAATGCCTCCAAACA-3′ (rev); FABP4: 5′-AGAAGTGGGAGTGGGCTTTG-3′ (fwd) and 5′-ACTCTCTGACCGGATGGTGA-3′ (rev); GLUT4: 5′-TGAAGAACGGATAGGGAGCAG-3′ (fwd) and 5′-GAAGTGCAAAGGGTGAGTGAG-3′ (rev); NonO: 5′-TGCTCCTGTGCCACCTGGTACTC-3′ (fwd) and 5′-CCGGAGCTGGACGGTTGAATGC-3′ (rev).
Results (expressed as mean ± SEM % relative mRNA expression; n = 3): Adiponectin: untreated (0.1% DMSO): 124 ± 45%; […];

[2] = molecular target: pregnane X receptor (PXR) (Homo sapiens, UniProt O75469); test: Gal4 hybrid reporter gene assay PXR
Excerpt: (§1) These in vitro test systems are based on a constitutively expressed hybrid receptor composed of the ligand binding domain of the respective human nuclear receptor and the DNA binding domain of the yeast receptor Gal4. A Gal4-inducible firefly luciferase serves as reporter gene and a constitutively expressed renilla luciferase is used for normalization of transfection efficacy and internal toxicity control[18],[19]. […] The Gal4-fusion receptor plasmids pFA-CMV-hPPARα-LBD[50], pFA-CMV-hPPARγ-LBD[50], pFA-CMV-hPPARδ-LBD[50], pFA-CMV-hLXRα-LBD[51], pFA-CMV-hLXRβ-LBD[51], pFA-CMV-hRXRα-LBD[52], pFA-CMV-hRXRβ-LBD[52], pFA-CMV-hRXRγ-LBD[52], pFA-CMV-hRARα-LBD[52], pFA-CMV-hRARβ-LBD[52], pFA-CMV-hRARγ-LBD[52], pFA-CMV-hFXR-LBD[53], pFA-CMV-hVDR-LBD[52], pFA-CMV-hCAR-LBD[52] and pFA-CMV-hPXR-LBD[52] coding for the hinge region and ligand binding domain (LBD) of the canonical isoform of the respective nuclear receptor have been reported previously. pFR-Luc (Stratagene) was used as reporter plasmid and pRL-SV40 (Promega) for normalization of transfection efficiency and cell growth.
HEK293T cells were grown in DMEM high glucose, supplemented with 10% FCS, sodium pyruvate (1 mM), penicillin (100 U/mL) and streptomycin (100 μg/mL) at 37 °C and 5% CO2. […] Luminescence was measured with an Infinite M200 luminometer (Tecan Deutschland GmbH). […]

PPARγ [3] = molecular target: T1, PPARγ (Homo sapiens, UniProt P37231); test: Gal4 hybrid reporter gene assay PPARγ; assay type: cell-based
T1 construct: expressed in transfected cells; host or cells: HEK293T
T1 sequence (P37231 238-503 limits assumed): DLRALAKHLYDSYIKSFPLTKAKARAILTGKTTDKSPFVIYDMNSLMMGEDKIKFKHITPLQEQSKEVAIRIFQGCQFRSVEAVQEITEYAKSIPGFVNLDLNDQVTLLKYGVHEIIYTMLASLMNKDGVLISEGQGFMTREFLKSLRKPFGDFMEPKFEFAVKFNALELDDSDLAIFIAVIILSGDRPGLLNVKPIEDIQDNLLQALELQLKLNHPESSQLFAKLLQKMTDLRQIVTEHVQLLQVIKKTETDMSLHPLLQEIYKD
Excerpt: as §1
HEK293T cells were grown in DMEM high glucose, supplemented with 10% FCS, sodium pyruvate (1 mM), penicillin (100 U/mL) and streptomycin (100 μg/mL) at 37 °C and 5% CO2. The day before transfection, HEK293T cells were seeded in 96-well plates (3·10^4 cells/well). Before transfection, medium was changed to Opti-MEM without supplements. Transient transfection was carried out using Lipofectamine LTX reagent (Invitrogen) according to the manufacturer’s protocol with pFR-Luc (Stratagene), pRL-SV40 (Promega) and the corresponding Gal4-fusion nuclear receptor plasmid. 5 h after transfection, medium was changed to Opti-MEM supplemented with penicillin (100 U/mL), streptomycin (100 μg/mL), now additionally containing 0.1% DMSO and the respective test compound or 0.1% DMSO alone as untreated control. Each concentration was tested in duplicates and each experiment was repeated independently at least three times. Following overnight (12-14 h) incubation with the test compounds, cells were assayed for luciferase activity using Dual-Glo™ Luciferase Assay System (Promega) according to the manufacturer’s protocol. Luminescence was measured with an Infinite M200 luminometer (Tecan Deutschland GmbH). […] Fold activation was obtained by dividing the mean RLU of a test compound at a respective concentration by the mean RLU of untreated control.

PPARγ [4] = tested on: PPARγ; parameters: method as in PMID 27716403; details: up to 100 μM; non-human cell line overexpressing PPARγ; cited from earlier work

Sequence of pregnane X receptor (PXR) (O75469 146-433 limits assumed): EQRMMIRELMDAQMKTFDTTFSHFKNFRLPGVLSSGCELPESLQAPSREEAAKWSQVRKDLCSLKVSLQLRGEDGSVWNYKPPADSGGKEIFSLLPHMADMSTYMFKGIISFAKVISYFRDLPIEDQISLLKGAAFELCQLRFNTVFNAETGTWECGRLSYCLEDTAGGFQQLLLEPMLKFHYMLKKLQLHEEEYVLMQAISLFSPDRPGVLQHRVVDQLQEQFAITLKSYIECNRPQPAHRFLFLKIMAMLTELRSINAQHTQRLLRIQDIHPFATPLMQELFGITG

Question: With `O=C(O)CSc1nnc(Br)n1-c1ccc(C2CC2)c2ccccc12` [lesinurad] as the molecule, how does the “CD36 relative mRNA expression” value ([1]; untreated 122 ± 43%) read?
Answer: 205 ± 76%

Question: And the “Adiponectin relative mRNA expression” value ([1]; untreated 124 ± 45%)?
Answer: 175 ± 63%

Question: And the “GLUT4 relative mRNA expression” value ([1]; untreated 145 ± 61%)?
Answer: 128 ± 43%

Question: And the “FABP4 relative mRNA expression” value ([1]; untreated 161 ± 72%)?
Answer: 151 ± 58%

Question: What about the EC50 [2] of the same molecule?
Answer: 19 ± 1 µM

Question: What about the PXR transactivation efficacy ([2]; vs. 1 µM SR12813) of the same molecule?
Answer: 145 ± 9%

Question: And the Gal4-PPARγ transactivation (PPARγ [3]; 30 μM)?
Answer: robustly transactivated

Question: What about the EC50 (PPARγ [3]; Gal4 hybrid reporter, HEK293T, 12-14 h, mean ± SEM, at least three experiments) of the same molecule?
Answer: 18.5 ± 0.7 µM

Question: What about the “PPARγ activation reported by Miner et al.” value (PPARγ [4]) of the same molecule?
Answer: does not activate PPARγ
